US9856259B2, “Heterocyclic compounds and uses thereof” (Plexxikon Inc., priority 2014, dated 2018)

Key:
[1] = system: cancer cells such leukemia and lymphoma, multiple myeloma cells, NUT midline carcinoma and glioblastoma cells; conditions: literature; cited from earlier work
BRD4-BD12 = target: T1, BRD4-BD12 (Homo sapiens, UniProt O60885); test: Alphascreen binding assay, BRD4(1 2) H4; conditions: BRD4 dual bromodomains with acetylated Histone 4 peptide, read-out: Biochemical activity (IC50 μM) BRD4(1 2) H4
T1 construct: dual bromodomains (BRD4-BD12 (1-477), BRD4-BD12 (1-472)); six-His tag (N); made in house; host or cells: E. coli BL21-CodonPlus (DE3)
Summary of the method: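 N-His-tagged human BRD4 tandem bromodomains (1-477 or 1-472, E. coli-expressed) and biotinylated tetra-acetylated histone H4 1-21 peptide, preincubated 1 h at room temperature with compound in HEPES pH 7.5/NaCl/BSA/Triton/DTT. AlphaScreen nickel-chelate/streptavidin beads added (7.5 μg/mL), read after 30 min. pIC50 from four-parameter fit of control-normalized data.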

[2] = system: cancer cell lines / MV-4-11 Myc reporter cell line; test: Bromodomain cell assays of Example 8 (at least one of them); format: cell-based; conditions: Homo sapiens, MV4-11; at least one of the bromodomain cell assays described in Example 8
Summary of the method: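 Antiproliferation: 3000 cells/well, 8-point 1:3 titration from 10 µM final, 0.2% DMSO, 72 h, CellTiter Glo luminescence. Myc reporter: MV-4-11 with E-box firefly luciferase, 25,000 cells, same titration, 24 h; One-Glo luminescence with CellTiter-Fluo viability; 10 µM JQ1 as low control. pIC50 from four-parameter fit.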

MV-4-11 = test: Oncology cell growth assay, MV-4-11 3 d growth; format: cell-based; conditions: Homo sapiens, MV4-11; MV-4-11 cells, 72 hours, CellTiter Glo; read-out: Cell activity (IC50 μM) MV-4-11 3 d-Growtb
Summary of the method: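 MV-4-11 AML cells (MLL-AF4) seeded 3000/well, then exposed to 8-point 1:3 compound dilutions up to 10 μM final, 0.2% DMSO, for 72 h. Growth read by CellTiter Glo luminescence, normalised to DMSO controls; pIC50 from four-parameter fit.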

[3] = system: MYC promoter / c-myc transcription in MV-4-11 cells; conditions: literature (Dawson M A et al. 2011); cited from earlier work

Structure (SMILES)	activity in variety of cancer cells [1]	IC50 (BRD4-BD12) [µM]	IC50 [2] [nM]	IC50 (MV-4-11) [µM]	BRD4 recruitment to the MYC promoter [3]	c-myc transcription [3]
Cc1sc2c(c1C)C(c1ccc(Cl)cc1)=N[C@@H](CC(=O)OC(C)(C)C)c1nnc(C)n1-2 [JQ1]	have shown activity					
Cc1noc(C)c1-c1ccc2c(-c3cnn(C)c3)nn(C(c3ccccc3)c3ccccn3)c2c1 (stereo not shown) [Compound P-2004, 3,5-dimethyl-4-[3-(1-methylpyrazol-4-yl)-1-[phenyl(2-pyridyl)methyl]indazol-6-yl]isoxazole]		≤ 1	< 10000	≤ 1		
[2H]C([2H])(C1CCC(F)(F)CC1)n1nc(-c2cnn(C(F)F)c2)c2ncc(-c3c(C)noc3C)cc21 [Compound P-2084, 4-[1-[dideuterio-(4,4-difluorocyclohexyl)methyl]-3-[1-(difluoromethyl)pyrazol-4-yl]pyrazolo[4,3-b]pyridin-6-yl]-3,5-dimethyl-isoxazole]		≤ 1	< 10000	≤ 1		
Cc1noc(C)c1-c1cnc2c(-c3cnn(C(F)F)c3)nn(CC3CCC(F)(F)CC3)c2c1 [Compound P-2082, 4-[1-[(4,4-difluorocyclohexyl)methyl]-3-[1-(difluoromethyl)pyrazol-4-yl]pyrazolo[4,3-b]pyridin-6-yl]-3,5-dimethyl-isoxazole]		≤ 1	< 10000	≤ 1		
Cc1noc(C)c1-c1ccc2c(-c3ccc(CC(=O)O)cc3)nn(C(c3ccccc3)c3ccccn3)c2c1 (stereo not shown) [Compound P-2009, 2-[4-[6-(3,5-dimethylisoxazol-4-yl)-1-[phenyl(2-pyridyl)methyl]indazol-3-yl]phenyl]acetic acid]		≤ 1	< 10000	≤ 1		
COC(=O)Cc1ccc(-c2cn([C@@H](C)c3ccccn3)c3nc(-c4c(C)noc4C)cnc23)cc1 [Compound P-2051, methyl 2-[4-[3-(3,5-dimethylisoxazol-4-yl)-5-[(1S)-1-(2-pyridyl)ethyl]pyrrolo[2,3-b]pyrazin-7-yl]phenyl]acetate]		≤ 1	< 10000	≤ 1		
Cc1noc(C)c1-c1cnc2c(n1)c(CC1CCC(F)(F)CC1)cn2-c1ccc(C(=O)O)cn1 [Compound P-2078, 6-[7-[(4,4-difluorocyclohexyl)methyl]-2-(3,5-dimethylisoxazol-4-yl)pyrrolo[2,3-b]pyrazin-5-yl]pyridine-3-carboxylic acid]		≤ 1	< 10000	1 to 10		
Cc1noc(C)c1-c1cnc2c(-c3ccc(CC(=O)O)cc3)cn([C@@H](C)c3ccccn3)c2n1 [Compound P-2052, 2-[4-[3-(3,5-dimethylisoxazol-4-yl)-5-[(1S)-1-(2-pyridyl)ethyl]pyrrolo[2,3-b]pyrazin-7-yl]phenyl]acetic acid]		≤ 1	< 10000	≤ 1		
COc1cc2c(cc1-c1c(C)noc1C)ncc1[nH]c(=O)n([C@H](C)c3ccccn3)c12 [iBET 151]	have shown activity				disrupt	downregulate
Cc1noc(C)c1-c1ccc2c(-c3cnn(CC(F)(F)F)c3)nn(C(c3ccccc3)c3ccccn3)c2c1 (stereo not shown) [Compound P-2005, 3,5-dimethyl-4-[1-[phenyl(2-pyridyl)methyl]-3-[1-(2,2,2-trifluoroethyl)pyrazol-4-yl]indazol-6-yl]isoxazole]		≤ 1	< 10000	≤ 1		
[2H]C([2H])(C1CCC(F)(F)CC1)n1ccc2ncc(-c3[nH]nnc3C)nc21 [Compound P-2041, 5-[dideuterio-(4,4-difluorocyclohexyl)methyl]-3-(4-methyl-1H-triazol-5-yl)pyrrolo[2,3-b]pyrazine]		1 to 10	< 10000	1 to 10		
Cc1noc(C)c1-c1cnc2c(-c3ccc(C(=O)O)cc3)cn(C(c3ccccc3)c3ccccn3)c2n1 (stereo not shown) [Compound P-2046, 4-[3-(3,5-dimethylisoxazol-4-yl)-5-[phenyl(2-pyridyl)methyl]pyrrolo[2,3-b]pyrazin-7-yl]benzoic acid]		≤ 1	< 10000	≤ 1		
[2H]C([2H])(C1CCC(F)(F)CC1)n1cc(-c2ccc(C(=O)OC)cc2)c2ncc(-c3c(C)noc3C)nc21 [Compound P-2043, methyl 4-[5-[dideuterio-(4,4-difluorocyclohexyl)methyl]-3-(3,5-dimethylisoxazol-4-yl)pyrrolo[2,3-b]pyrazin-7-yl]benzoate]		≤ 1	< 10000	1 to 10		
Cc1noc(C)c1-c1ccc2c(-c3ccc(CC(=O)O)cc3)nn([C@@H](C)c3ccccn3)c2c1 [Compound P-2014, 2-[4-[6-(3,5-dimethylisoxazol-4-yl)-1-[(1S)-1-(2-pyridyl)ethyl]indazol-3-yl]phenyl]acetic acid]		≤ 1	< 10000	≤ 1		
Cc1noc(C)c1-c1cnc2c(-c3cnn(C)c3)nn(CC3CC(F)(F)C3)c2c1 [Compound P-2086, 4-[1-[(3,3-difluorocyclobutyl)methyl]-3-(1-methylpyrazol-4-yl)pyrazolo[4,3-b]pyridin-6-yl]-3,5-dimethyl-isoxazole]		≤ 1	< 10000	≤ 1		
COC(=O)c1ccc(-c2cn(C(c3ccccc3)c3ccccn3)c3nc(-c4c(C)noc4C)cnc23)cc1 (stereo not shown) [Compound P-2045, methyl 4-[3-(3,5-dimethylisoxazol-4-yl)-5-[phenyl(2-pyridyl)methyl]pyrrolo[2,3-b]pyrazin-7-yl]benzoate]		≤ 1	< 10000	≤ 1		
